Reference: a melting point compilation (Tetko et al.; mined from patent text by program, amines drawn as free bases though some values may be those of a salt)

SMILES	melting point
COC(=O)c1nc(NC(C)=O)sc1-c1ccccc1	224 to 226 °C
O=C(O)COCc1cc2cc(Cl)ccc2n1S(=O)(=O)c1ccccc1	140 to 142 °C
Cn1nc(-c2cnc(N)nc2-c2cccc(O)c2)ccc1=O	285 °C
Cc1ccc(OCC(=O)c2ccccc2)cc1	65 °C
COC(=O)c1ccc(NS(=O)(=O)c2ccc(F)cc2)cn1	183 to 185 °C
C#CCOc1ccccc1-n1cnc2cc(N)ccc21	40 to 42 °C
CN1CCC(C2=C(C#N)C(c3cccc(C#N)c3Br)c3c[nH]nc3N2)CC1 (stereo not drawn)	> 270 °C
CCOCc1nc2c(N)nc3ccccc3c2n1CC1(OCCS(C)(=O)=O)CCCCC1	159 to 161 °C
Cc1ccc(S(=O)(=O)C(CC#Cc2ccc(Cl)cc2)C(=O)O)cc1 (stereo not drawn)	154 to 157 °C
CS(=O)(=O)NC(=O)CCCC[C@H]1CCSS1	71 to 73 °C
C/C(O)=C(\C#N)C(=O)Sc1ccc(Cl)cc1	91 to 94 °C
CCc1cc(NCc2ccc(-c3ccccc3-c3nnn[nH]3)cc2)n2nccc2n1	177 to 179 °C
CC1(C)N=C(N)N=C(N)N1OCc1cccc2ccccc12	170 to 171 °C
c1cc(-c2ccc3c(c2)OCO3)cc(Nc2ccc3c(c2)OCCO3)n1	116 to 118 °C
COc1cc(C(=O)C#CC(=O)N(C)C)cc(OC)c1OC	118 to 119 °C
C#CC1(O)CCC2C3CC(C)C4=CC(=O)CCC4C3CCC21CC (stereo not drawn)	148 to 151 °C
CCOC(=O)C(O)=Cc1nccc(OCc2ccccc2)n1	124 to 126 °C
Cc1nc(-n2cc(Cc3ccccc3)nn2)sc1C(=O)NCc1ccccc1	139 to 141 °C
CCOC1Nc2c(ccc(OC)c2O)C(=O)N2CCCC12 (stereo not drawn)	155 to 158 °C
CC(C)NCCCCCCOc1ccc(OCc2ccccc2)cc1	47 to 49 °C
CC(C)(O)c1cc(C(C)(C)O)cc(C(C)(C)O)c1	148 to 150 °C
COC(=O)C(=O)c1ccc(OC/C=C/c2ccc3ccccc3c2)cc1	100 to 102 °C
CCOC(=O)N1CCC2C(C1)c1cccc3c1N2CC(=O)N3 (stereo not drawn)	167 to 168 °C
CN(C)C(=O)c1nc(-c2ccccc2)nc2[nH]c3cc(Cl)ccc3c12	232 to 233 °C
CC(C)c1cccc(C(C)C)c1NC(=O)CNC(c1ccccc1)c1cccc(CO)c1 (stereo not drawn)	57 to 62 °C
Cc1cc(C)c(S(=O)(=O)NCCCCNS(=O)(=O)c2c(C)cc(C)cc2C)c(C)c1	156 to 158 °C

SMILES	melting point
CCOC(=O)c1cc(Cl)nc(Cl)n1	31.6 °C
COc1cc(-c2nc(-n3nccn3)c3c(C)c(C#N)sc3n2)cc(OC)c1OC	208 to 210 °C
CNC(=O)CC(C#Cc1ccccc1)c1ccc(OC)c(OC2CCCC2)c1 (racemic)	127 to 131 °C
COc1ccc(-c2cc(=Nc3c(C)cc(C)cc3C)n(C)c(C)n2)cc1OC	163 to 168 °C
CC1(C)CCc2cc(S(=O)(=O)C[N+](=O)[O-])ccc2O1	85 to 86.5 °C
COC(=O)c1ccccc1S(=O)(=O)Nn1cnn(-c2nc(OC)cc(OC)n2)c1=O	192 °C
Cc1c(Br)c(=O)n(C2CCCC2)c2nc(Nc3ccc(N4CCN(C(=O)OC(C)(C)C)CC4)cn3)ncc12	> 250 °C
COC(=O)Nc1cccc2c1C(=O)C1(O)c3ccc(C(C)C)cc3OC21O (stereo not drawn)	96 to 99 °C
COc1ccc(Cn2c(C(=O)O)c(-c3ccc4c(c3)OCO4)c3cc(OCc4ccccc4)ccc32)c(OCC(=O)O)c1	147 to 148 °C
CC(=O)c1cc(F)cc(C#N)c1F	80 to 83 °C
NS(=O)(=O)c1ccccc1OC(Cl)=CCl	147 to 149 °C
COC(=O)C(CC1CCCC1)c1ccc(S(C)(=O)=O)c(F)c1 (stereo not drawn)	66 to 68 °C
O=C(/C=C/c1ccc(F)cc1)N1CCN2C(=O)OC(c3ccccc3)(c3ccccc3)C2C1 (stereo not drawn)	250 to 251 °C
O=C(Oc1ccccc1)c1ccc(O)cc1O	135 to 137 °C
CNC(=O)c1n[nH]cc1NC(=O)c1ccccn1	248 to 249 °C
CNC1N=CN(c2c(Cl)cccc2Cl)C(=O)N1 (stereo not drawn)	270 °C
O=C1N(Cc2ccccn2)c2cccc(Br)c2C12COc1cc3c(cc12)CCO3 (stereo not drawn)	> 200 °C
COC(=O)c1cc2c(C)ccc(C)c2n1C(=O)OC	75 to 80 °C
CC(=O)Oc1cc2ccccc2cc1C(=O)O	185 to 186 °C
CC(C)c1cc(C(=O)O)cs1	64 to 67 °C
Cn1cncc1C(N)(c1ccc(Cl)cc1)c1ccc2c(c1)c(-c1nc(-c3ccccc3)cs1)cc(=O)n2C (stereo not drawn)	237 °C
Cc1cc(C)cc(COC(=O)C(Cc2c[nH]c3ccccc23)NC(=O)OC(C)(C)C)c1 (stereo not drawn)	152 to 153 °C
Cc1nn(-c2c(Cl)cc(C(F)(F)F)cc2Cl)nc1S	86 to 89 °C
CC(C)(C)OC(=O)N[C@H](CCOc1ccc(C#N)cc1)C(=O)O	132 to 146 °C
CCCc1c(C(=O)NCc2ccc(-c3ccc(O)c(Br)c3)cc2)cnn1-c1ccccc1	184 to 186 °C
CCCNC(=O)CCC(C)C1CCC2C3C(OC(C)=O)CC4CC(OO)(OO)CCC4(C)C3CC(OC(C)=O)C12C (stereo not drawn)	120 to 129 °C

SMILES	melting point
NS(=O)(=O)c1cccc(-c2cn(-c3nc(-c4ccc(Cl)s4)cc(C(F)(F)F)n3)cn2)c1	189 °C
CC(C)(NC(=O)C(CO)NC(=O)c1ccccc1)c1ccccc1 (stereo not drawn)	152 to 153 °C
CC(C)CNC(=O)[C@H](C)C[C@H](O)[C@H](CC1CCCCC1)NC(=O)[C@H](Cc1cscn1)NC(=O)OC(C)(C)C	178 to 180 °C
N#Cc1cccc(C(=O)Nc2cccc(-c3cccc4c3/C(=C/c3ccc[nH]3)C(=O)N4)c2)c1	250 to 251 °C
O=c1c(Cl)c(Cl)cnn1-c1ccc([N+](=O)[O-])cc1	221 °C
N#CC(C(=O)O)=C1Nc2ccccc2O1	185 to 187 °C
Cc1cccc(C(=O)C=CC(=O)O)c1	115 to 117 °C
COc1ccc(-c2cc(=O)c3cc(OCCCCCN4CCC(O)CC4)ccc3o2)cc1OC	154 to 155 °C
CN(CC(=O)O)C(=O)c1c(N)cccc1I	147 to 149 °C
O=C(NCCOCc1cccc(Cl)c1)c1c(Cl)cccc1Cl	70 to 72 °C
CN1C(=O)C(N)=C(C#N)C1=O	284 °C
Fc1ccc(-n2c3c(c4cc(F)ccc42)CNCC3)cc1	126 to 129 °C
COc1ccc(C(=O)c2cc(OC)ccc2O)cc1	70 to 72 °C
O=C(CN1CCC(Cc2ccccc2)CC1)Nc1ccc(O)cc1	66 to 70 °C
O=C1Cc2cccc(Oc3ccc(Cl)cc3)c2O1	100 to 102 °C
COc1cc2ncc(C(N)=O)c(Nc3cccc(Br)c3)c2cc1OC	239 to 242 °C
O=[N+]([O-])c1cnn2c(-c3cccs3)ccnc12	235 to 237 °C
CCOC(=O)CCCCCCOc1ccc(OCc2ccccc2)cc1	57 to 61 °C
Nc1nc(-c2ccccc2)c(-c2ccnc(Nc3cccc(I)c3)n2)s1	243 to 244 °C
CN(Cc1ccc(N)cc1)C1CCSCC1	88 to 89 °C
COc1cc2c(cc1O)CCN(C(=O)c1cccc(C#N)c1)C2=O	197 to 198 °C
Clc1nc(-c2ccccc2)cc2ccccc12	75 to 77 °C
CCOC(=O)c1cnc(OCC)c2c(C)n[nH]c12	200 °C
O=C1CCC(c2ccc(OC3CCN(C4CCC4)CC3)cc2F)=NN1	> 300 °C
NC(=O)N(O)CCn1cc(Sc2ccccc2)c2ccccc21	95 to 99 °C
c1ccc2cc(CCNc3ncnc4ccccc34)ccc2c1	172 to 174 °C

SMILES	melting point
O=[N+]([O-])c1ccc2nc(CS(=O)c3ccccn3)[nH]c2c1 (stereo not drawn)	207 to 209 °C
CCC(=O)NC[C@H]1CN(c2ccc3c(c2)CCCc2cn[nH]c2-3)C(=O)O1	233 to 235 °C
COC(=O)c1cccc2nc(N)sc12	232 to 233 °C
CC(=O)N1CCc2cc(C(=O)CCCCCBr)ccc21	110 to 111 °C
CC(=O)ON=C(c1ccccc1)c1cc(C(C)(C)C)c(O)c(C(C)(C)C)c1	136 to 137 °C
CC(O)COc1ccc2c(c1)c(-c1cc3cccnc3[nH]1)cn2C (stereo not drawn)	198 to 199 °C
O=c1[nH]c(=O)n2c3c1cnn3C(c1cccnc1)=CC2	292 to 295 °C
O=C1CCC(N2Cc3c(OCc4ccc(CN5CCC(C(F)(F)F)CC5)cc4)cccc3C2=O)C(=O)N1 (stereo not drawn)	178 to 180 °C
CCOC(=O)CCNC(=O)CCNC(=O)c1csc(NC(=N)N)n1	154 to 157 °C
CCCCCCCOC1CCC(=O)N1 (stereo not drawn)	52 to 54 °C
Cc1c(C(F)(F)F)noc1NS(=O)(=O)c1ccc(-c2ccccc2)cc1	139 to 140 °C
CS(=O)c1ccc(-n2[nH]c3ccccc3c2=O)cc1 (stereo not drawn)	208 to 210 °C
COc1ccc(Cl)cc1-n1cncc1-c1ccc(C(F)(F)F)cc1	158 to 159 °C
COC[C@]12CCC(=O)C=C1CC[C@@H]1[C@@H]2CC[C@]2(C)[C@@H](C(=O)CO)CC[C@@H]12	148 to 149 °C
Cc1c(NC(=O)c2ccc(-c3ccc(F)c(F)c3)cc2)ccc2cc(CN3CCCC3)cnc12	199 to 201 °C
O=C(NCC1(O)CCCCCC1)c1cc(-c2ncc(Cl)cc2C(=O)O)ccc1Cl	201 to 204 °C
N#Cc1nn(-c2c(Cl)cc(C(F)(F)F)cc2Cl)c(N)c1SC(F)(F)F	163 °C
CC(C)(C)c1cc(-c2nn(CCN3CCCC3=O)c3ncccc23)cc(C(C)(C)C)c1O	148 to 150 °C
C[C@@H](n1cnc2cc(N3CCN(C)CC3)c(F)cc2c1=O)[C@](O)(Cn1cncn1)c1ccc(F)cc1F	106 to 112 °C
COc1ccc(CNc2c(Cl)cnn(-c3ccccc3)c2=O)cc1	125 to 126 °C
CC(C(=O)O)c1ccc(N=c2sccn2C)c(Cl)c1 (stereo not drawn)	132 to 133 °C
CCOC(=O)C1CCCCN1C(=O)Cl (stereo not drawn)	121 to 123 °C
CCOC(=O)C(C)OCC#Cc1nc(Cl)ccc1N (stereo not drawn)	70 °C
NC1CCN(c2ncc3ncnc(Nc4ccc(OCc5ccccc5)cc4)c3n2)CC1	150 °C
O=C(Nc1cc(C(F)(F)F)c[nH]c1=O)c1ccccc1	207 to 210 °C
